Laboratory results as given in patent US20200188473A1, “COMBINATION THERAPY FOR CANCER” (BETH ISRAEL DEACONESS MEDICAL CENTER, INC., priority 2017, published 2020).

How the values were obtained:
ACE2 = assay: transcriptome analysis of untreated vs resistant xenograft tumors; assay type: in vivo, mice; settings: for ACE2 down modulation in resistant tumors vs control untreated tumors: 786-0 model
Protocol: Transcriptome analysis of the untreated tumors vs the resistant tumors was performed. ACE2 was the second most down-modulated gene common to the sorafenib and sunitinib treated 786-0 model with a 2.4 fold down modulation in the resistant tumors vs the control untreated tumors. Moreover, ACE2 was in the top 3 most down-modulated genes in the A498 tumor model with a 5-fold decrease i n resistant tumors vs untreated tumors (P<0.001).

[1] = test system: human VHL deficient RCC cell lines (A498); settings: A498 xenograft; treatment begun at 12 mm diameter; resistance = time to grow 2 mm beyond pretreatment size; sunitinib 30 mg/kg daily by gavage
Protocol: A murine xenograft system to study resistance antiangiogenic agents was developed. To assess the effects of antiangiogenic therapy on the growth of human RCC xenografts, established human VHL deficient RCC cell lines (A498) were implanted subcutaneously (1×10^7 cells) into the flanks of 6-8 week old nude/beige mice. The tumors were measured in two axes and the largest axis was followed. Treatment with sunitinib or sorafenib was begun when the tumors reached a diameter of 12 mm (roughly 3 weeks after injection) and resistance to this treatment was monitored. Resistance was defined as the time required for a tumor to grow 2 mm beyond its pretreatment size. […] This model was used to study the mechanisms by which tumors escape angiogenesis inhibition.
The effect of sunitinib and Ang(1-7) on the growth of human RCC xenografts was tested. 1×10^7 cells were injected into the flanks of nude-beige mice. Established human VHL deficient RCC cell lines (A498) were implanted subcutaneously (1×10^7 cells) into the flanks of 6-8 week old nude/beige mice. The tumors were measured in two axes and the largest axis was followed. Treatment with sunitinib (30 mg/kg daily by gavage) and Ang(1-7) 1 mg/kg Ang(1-7) IP three times per week was begun when the tumors reached a diameter of 12 mm (roughly 3 weeks after injection). […]

Compound	ACE2 down modulation in resistant tumors vs control untreated tumors (ACE2)	ACE2 expression (ACE2; murine xenograft system, sunitinib treatment)	period of relative stabilization [1]
CNC(=O)c1cc(Oc2ccc(NC(=O)Nc3ccc(Cl)c(C(F)(F)F)c3)cc2)ccn1 [sorafenib]	2.4 fold	–	–
CCN(CC)CCNC(=O)c1c(C)[nH]c(/C=C2\C(=O)Nc3ccc(F)cc32)c1C [sunitinib]	2.4 fold	loss of ACE2 expression	10 to 12 days
